Converted amounts (≈) assume the structure as drawn. The source made the active and inactive calls. The calls are words filed in the database; no cut-off is given here. Non-standard residues stand in square brackets, D forms with d. Residues, ends and D or L forms follow the SMILES beside them. Bip = N[C@@H](Cc1ccc(-c2ccccc2)cc1)C(=O)O; pY = N[C@@H](Cc1ccc(OP(=O)(O)O)cc1)C(=O)O
Experiments:
[1] = Hemolytic activity in mouse erythrocyte incubated for 1 hr by microplate reader assay; type: toxicity, cell-based
[2] = system: Escherichia coli; assay: Antibiofilm activity against Escherichia coli ATCC 25922 assessed as eradication of preformed biofilms incubated for 24 hrs by crystal violet staining based assay; type: functional, organism-based
[3] = system: Cell membrane; assay: Induction of inner membrane permeabilization in Escherichia coli ML-35 assessed as increase in […] intensity measured every 5 mins for 135 mins by ONPG dye based microplate reader assay; type: subcellular
[4] = system: Escherichia coli; assay: Antibacterial activity against Escherichia coli ATCC 25922 incubated for 18 to 24 hrs by broth microdilution method; type: functional; details: time 18-24 hrs
[5] = system: Escherichia coli; assay: Antibacterial activity against Escherichia coli 25922 assessed as interaction with LPS by measuring bacterial mortality at 2 times MIC preincubated with LPS for 1 hr followed by bacterial addition and measured after overnight by microplate reader assay; type: functional, organism-based
[6] = system: Cell membrane; assay: Induction of cytoplasmic membrane rupture in Pseudomonas aeruginosa ATCC 27853 assessed as wrinkling at 2 times MIC incubated for 30 to 120 mins by SEM analysis; type: subcellular; details: time 30-120 min
[7] = system: Escherichia coli; assay: Antibiofilm activity against Escherichia coli ATCC 25922 assessed as eradication of preformed biofilms at 2 to 4 times MIC incubated for 24 hrs by crystal violet staining based assay; type: functional, organism-based
[8] = system: Bacillus subtilis; assay: Antibacterial activity against Bacillus subtilis ATCC 23857 incubated for 18 to 24 hrs by broth microdilution method; type: functional; details: time 18-24 hrs
[9] = system: Klebsiella pneumoniae; assay: Additive antibacterial activity against Klebsiella pneumoniae ATCC 700603 assessed as fractional inhibitory concentration index at 1/4 to 4 times MIC incubated for 18 to 24 hrs in presence of rifampicin by checkerboard assay; type: functional; details: time 18-24 hrs
[10] = system: Cell membrane; assay: Induction of cytoplasmic membrane rupture in Pseudomonas aeruginosa ATCC 27853 assessed as adhesion at 2 times MIC incubated for 30 to 120 mins by SEM analysis; type: subcellular; details: time 30-120 min
[11] = system: Cell membrane; assay: Induction of cell membrane disruption in Pseudomonas aeruginosa ATCC 27853 at 2 times MIC incubated for 2 hrs by SEM analysis; type: subcellular
[12] = system: Klebsiella pneumoniae; assay: Synergistic antibacterial activity against Klebsiella pneumoniae ATCC 700603 assessed as fractional inhibitory concentration index at 1/4 to 4 times MIC incubated for 18 to 24 hrs in presence of polymyxin B by checkerboard assay; type: functional; details: time 18-24 hrs
[13] = system: Klebsiella pneumoniae; assay: Inhibition of kanamycin resistance in Klebsiella pneumoniae ATCC 700603 at 1:1 compound: kanamycin molar ratio measured after 20 generation; type: functional, organism-based
[14] = system: Klebsiella pneumoniae; assay: Antibiofilm activity against Klebsiella pneumoniae ATCC 700603 assessed as eradication of preformed biofilms incubated for 24 hrs by crystal violet staining based assay; type: functional, organism-based
[15] = system: Staphylococcus aureus; assay: Antibacterial activity against Staphylococcus aureus ATCC 25923 incubated for 18 to 24 hrs by broth microdilution method; type: functional; details: time 18-24 hrs
[16] = system: Escherichia coli; assay: Antibacterial activity against Escherichia coli 850 incubated for 18 to 24 hrs by broth microdilution method; type: functional; details: time 18-24 hrs
[17] = system: Cell membrane; assay: Induction of cell membrane disruption in Staphylococcus aureus ATCC 25923 at 2 times MIC incubated for 2 hrs by SEM analysis; type: subcellular
[18] = system: Escherichia coli; assay: Inhibition of biofilm formation in Escherichia coli ATCC 25922 incubated for 24 hrs by crystal violet staining based assay; type: functional, organism-based
[19] = molecular target: Chymotrypsin (Homo sapiens, UniProt Q99895+P17538+P40313+Q6GPI1); assay: Stability of compound assessed as chymotrypsin (unknown origin) mediated compound degradation; type: ADME, protein assay
[20] = system: Cell membrane; assay: Induction of cytoplasmic membrane rupture in Staphylococcus aureus ATCC 25923 assessed as content leakage at 2 times MIC incubated for 30 to 120 mins by SEM analysis; type: subcellular; details: time 30-120 min
[21] = system: Pseudomonas aeruginosa; assay: Antibacterial activity against Pseudomonas aeruginosa ATCC 27853 incubated for 18 to 24 hrs by broth microdilution method; type: functional; details: time 18-24 hrs
[22] = molecular target: Trypsin (Homo sapiens, UniProt P07477+P07478+P35030); assay: Stability of compound assessed as trypsin (unknown origin) mediated compound degradation; type: ADME, protein assay
[23] = system: Staphylococcus aureus; assay: Antibacterial activity against Staphylococcus aureus 794 incubated for 18 to 24 hrs by broth microdilution method; type: functional; details: time 18-24 hrs
[24] = system: Pseudomonas aeruginosa; assay: Inhibition of biofilm formation in Pseudomonas aeruginosa ATCC 27853 incubated for 24 hrs by crystal violet staining based assay; type: functional, organism-based
[25] = Toxicity in ip dosed BALB/c mouse measured after 14 days; type: organism-based; details: in vivo, time 14 day
[26] = system: Acinetobacter baumannii; assay: Antibacterial activity against Acinetobacter baumannii ATCC 19606 incubated for 18 to 24 hrs by broth microdilution method; type: functional; details: time 18-24 hrs
[27] = system: Staphylococcus aureus; assay: Antibiofilm activity against Staphylococcus aureus ATCC 25923 assessed as eradication of preformed biofilms at 2 to 4 times MIC incubated for 24 hrs by crystal violet staining based assay; type: functional, organism-based
[28] = system: Klebsiella pneumoniae; assay: Antibacterial activity against rifampicin resistant Klebsiella pneumoniae; type: functional
[29] = system: Pseudomonas aeruginosa; assay: Antibiofilm activity against Pseudomonas aeruginosa ATCC 27853 assessed as eradication of preformed biofilms incubated for 24 hrs by crystal violet staining based assay; type: functional, organism-based
[30] = system: Cell membrane; assay: Induction of outer membrane permeabilization in Escherichia coli ATCC 25922 assessed as increase in fluorescence intensity incubated for 1 min by NPN dye based microplate reader assay; type: subcellular
[31] = system: Escherichia coli; assay: Antibacterial activity against Escherichia coli 780 incubated for 18 to 24 hrs by broth microdilution method; type: functional; details: time 18-24 hrs
[32] = system: Klebsiella pneumoniae; assay: Inhibition of biofilm formation in Klebsiella pneumoniae ATCC 700603 incubated for 24 hrs by crystal violet staining based assay; type: functional, organism-based
[33] = system: Pseudomonas aeruginosa; assay: Antibiofilm activity against Pseudomonas aeruginosa ATCC 27853 assessed as eradication of preformed biofilms at 4 times MIC incubated for 24 hrs by crystal violet staining based assay; type: functional, organism-based
[34] = system: Cell membrane; assay: Induction of cytoplasmic membrane rupture in Staphylococcus aureus ATCC 25923 assessed as adhesion at 2 times MIC incubated for 30 to 120 mins by SEM analysis; type: subcellular; details: time 30-120 min
[35] = system: Staphylococcus aureus; assay: Antibacterial activity against methicillin resistant Staphylococcus aureus 48 incubated for 18 to 24 hrs by broth microdilution method; type: functional; details: time 18-24 hrs
[36] = system: Staphylococcus aureus; assay: Antibiofilm activity against Staphylococcus aureus ATCC 25923 assessed as eradication of preformed biofilms incubated for 24 hrs by crystal violet staining based assay; type: functional, organism-based
[37] = system: Staphylococcus aureus; assay: Antibacterial activity against methicillin resistant Staphylococcus aureus ATCC 33591 incubated for 18 to 24 hrs by broth microdilution method; type: functional; details: time 18-24 hrs
[38] = system: Staphylococcus aureus; assay: Inhibition of biofilm formation in Staphylococcus aureus ATCC 25923 at 1 time MIC incubated for 24 hrs by crystal violet staining based assay; type: functional, organism-based
[39] = system: Klebsiella pneumoniae; assay: Antibiofilm activity against Klebsiella pneumoniae ATCC 700603 assessed as eradication of preformed biofilms at 2 to 4 times MIC incubated for 24 hrs by crystal violet staining based assay; type: functional, organism-based
[40] = system: Pseudomonas aeruginosa; assay: Antibacterial activity against Pseudomonas aeruginosa 119 incubated for 18 to 24 hrs by broth microdilution method; type: functional; details: time 18-24 hrs
[41] = system: Klebsiella pneumoniae; assay: Antibacterial activity against kanamycin resistant Klebsiella pneumoniae; type: functional
[42] = system: Cell membrane; assay: Induction of membrane damage in Pseudomonas aeruginosa ATCC 27853 assessed as change in membrane shape at 2 times MIC incubated for 30 to 120 mins by SEM analysis; type: subcellular; details: time 30-120 min
[43] = Cytotoxicity against HEK293T cells incubated for 1 hr by fluorescence based microplate reader assay; type: toxicity, cell-based, HEK-293T; details: human
[44] = system: Klebsiella pneumoniae; assay: Durg resistance development in Klebsiella pneumoniae ATCC 700603 measured after 20 passage; type: functional, organism-based

Structure (SMILES): CC(C)C[C@H](NC(=O)[C@H](CC(C)C)NC(=O)[C@H](Cc1ccc(OP(=O)(O)O)cc1)NC(=O)[C@H](CCCCN)NC(=O)[C@H](CC(C)C)NC(=O)[C@H](CCCNC(=N)N)NC(=O)[C@H](CCCCN)NC(=O)[C@H](Cc1ccc(-c2ccccc2)cc1)NC(=O)[C@H](CC(C)C)NC(=O)CN)C(N)=O (H-GL[Bip]KRLK[pY]LL-NH2)
- MHC [1]: > 256 µM
- Activity [2]: Dose-dependent-effect; Superior Activity Compared To Polymyxin B And Vancomycin
- Activity [3]: Dose-dependent-effect; More Potent Than 1% Triton X-100 And Polymyxin B
- MIC [4]: 8 µM (≈ 11.2 µg/mL)
- Activity [5]: Active; Activity Comparable To Polymyxin B
- Activity [6]: Active
- Activity [7]: Active
- MIC [8]: 8 µM (≈ 11.2 µg/mL)
- fractional inhibitory concentration index (FICI) [9]: 0.563
- Activity [10]: Active
- Activity [11]: Active; More Potent Than Polymyxin B And Vancomycin
- fractional inhibitory concentration index (FICI) [12]: 0.5
- inhibition [13]: Active
- Activity [14]: Dose-dependent-effect; Superior Activity Compared To Polymyxin B And Vancomycin
- MIC [15]: 8 µM (≈ 11.2 µg/mL)
- MIC [16]: 8 µM (≈ 11.2 µg/mL)
- Activity [17]: Active; More Potent Than Polymyxin B And Vancomycin
- inhibition [18]: Dose-dependent-effect; Inhibition Comparable To Polymyxin B
- Stability [19]: Stable
- Activity [20]: Active
- MIC [21]: 16 µM (≈ 22.5 µg/mL)
- Stability [22]: Stable
- MIC [23]: 8 µM (≈ 11.2 µg/mL)
- inhibition [24]: Dose-dependent-effect; Inhibition Comparable To Polymyxin B
- LD50 at 336 h [25]: 283 mg/kg
- MIC [26]: 4 µM (≈ 5.62 µg/mL)
- Activity [27]: Active
- MIC [28]: 8 µM (≈ 11.2 µg/mL)
- Activity [29]: Dose-dependent-effect; Superior Activity Compared To Polymyxin B And Vancomycin
- Activity [30]: Dose-dependent-effect
- MIC [31]: 8 µM (≈ 11.2 µg/mL)
- inhibition [32]: Dose-dependent-effect; Inhibition Comparable To Polymyxin B
- Activity [33]: Active
- Activity [34]: Active
- MIC [35]: 8 µM (≈ 11.2 µg/mL)
- Activity [36]: Dose-dependent-effect; Superior Activity Compared To Polymyxin B And Vancomycin
- MIC [37]: 8 µM (≈ 11.2 µg/mL)
- inhibition [38]: Active
- Activity [39]: Active
- MIC [40]: 15 µM (≈ 21.1 µg/mL)
- MIC [41]: 8 µM (≈ 11.2 µg/mL)
- Activity [42]: Active
- CC50 at 1 h [43]: 168 µM
- Activity [44]: inactive

Reference: ChEMBL document CHEMBL6092167, “Phosphorylation as an Effective Tool to Improve Stability and Reduce Toxicity of Antimicrobial Peptides” (J Med Chem, 2024)
